From patent US9981940B2, “Aryl sulfide derivatives and aryl sulfoxide derivatives as acaricides and insecticides” (BAYER CROPSCIENCE AKTIENGESELLSCHAFT, priority 2013, dated 2018)

How the values were obtained:
[1] = log P by HPLC (OECD Guideline 117), method [a] acidic range; type: physicochemical; details: for logP[a]: HPLC, method [a] acidic range; for chromatographic logP: reversed-phase C18 HPLC column, acidic range
Experimental: (§1) The log P values were determined analogously to OECD Guideline 117 (EC Directive 92/69/EEC) by HPLC (high-performance liquid chromatography) using reversed-phase columns (C 18), by the following methods:
[a] The LC-MS determination in the acidic range is effected at pH 2.7 with 0.1% aqueous formic acid and acetonitrile (contains 0.1% formic acid) as eluents; linear gradient from 10% acetonitrile to 95% acetonitrile.

[2] = log P by HPLC (OECD Guideline 117), method [b] neutral range; type: physicochemical; details: HPLC; for logP[b]: method [b] neutral range; for chromatographic logP: reversed-phase C18 HPLC column, neutral range, pH 7.8
Experimental: as §1
[b] The LC-MS determination in the neutral range is effected at pH 7.8 with 0.001 molar aqueous ammonium hydrogencarbonate solution and acetonitrile as eluents; linear gradient from 10% acetonitrile to 95% acetonitrile.

[3] = system: Meloidogyne incognita; test: Meloidogyne incognita test (MELGIN); type: in vivo; details: application rate of 20 ppm; after 14 days, by formation of galls
Experimental: Meloidogyne Incognita Test (MELGIN)
• Solvent: 125.0 parts by weight of acetone
To produce an appropriate active ingredient formulation, 1 part by weight of active ingredient is mixed with the specified amounts of solvent and the concentrate is diluted to the desired concentration with water.
Vessels are filled with sand, active ingredient solution, an egg/larvae suspension of the southern root-knot nematode (Meloidogyne incognita) and lettuce seeds. The lettuce seeds germinate and the plants develop. The galls develop on the roots
After 14 days, the nematicidal efficacy in % is determined by the formation of galls. 100% means that no galls have been found; 0% means that the number of galls on the treated plants corresponds to the untreated control.

[4] = system: Boophilus microplus; test: Boophilus microplus injection test (BOOPMI Inj); type: in vivo; details: application rate of 20 μg/animal, assessed after 7 days by laying of fertile eggs
Experimental: Use Examples Boophilus microplus Injection Test (BOOPMI Inj) • Solvent: dimethyl sulphoxide
To prepare an appropriate active ingredient formulation, 10 mg of active ingredient are mixed with 0.5 ml of solvent and the concentrate is diluted with solvent to the desired concentration.
1 μl of the active ingredient solution is injected into the abdomen of 5 engorged adult female cattle ticks (Boophilus microplus). The animals are transferred into dishes and kept in a climate-controlled room.
The efficacy is assessed after 7 days by laying of fertile eggs. Eggs which are not visibly fertile are stored in a climate-controlled cabinet until the larvae hatch after about 42 days.
An efficacy of 100% means that none of the ticks has laid any fertile eggs; 0% means that all the eggs are fertile.

[5] = system: Phaedon cochleariae; test: Phaedon cochleariae spray test (PHAECO); type: in vivo; details: after 7 days; for pest or weed control at 500 g/ha: Phaedon cochleariae, 168 h, read-out: efficacy
Experimental: Phaedon cochleariae—Spray Test (PHAECO)
• Solvent: 78.0 parts by weight of acetone • 1.5 parts by weight of dimethylformamide • Emulsifier: 0.5 part by weight of alkylaryl polyglycol ether
To produce an appropriate active ingredient formulation, 1 part by weight of active ingredient is mixed with the specified amounts of solvent and emulsifier, and the concentrate is diluted to the desired concentration with emulsifier-containing water.
Discs of Chinese cabbage leaves (Brassica pekinensis) are sprayed with an active ingredient formulation of the desired concentration and, after drying, populated with larvae of the mustard beetle (Phaedon cochleariae).
After 7 days, the efficacy in % is determined 100% means that all beetle larvae have been killed; 0% means that none of the beetle larvae have been killed.

[6] = system: Tetranychus urticae; test: Tetranychus urticae spray test, OP-resistant (TETRUR); type: in vivo; details: application rate of 500 g/ha, after 6 days; for pest or weed control at 500 g/ha: Tetranychus urticae, 144 h, read-out: efficacy
In short: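 Mortality as % efficacy (0% = no mites killed) read 6 days after spraying. Formulation: active ingredient in acetone/dimethylformamide plus emulsifier, diluted with emulsifier-containing water, applied to Phaseolus vulgaris leaf discs carrying every life stage of OP-resistant spider mites.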

[7] = pH 2.7, HPLC method [a], read-out: logP[a]
[8] = pH 2.7, HPLC, pH 2.7, read-out: log P[a]

Compound	logP[a] [1]	logP[b] [2]	efficacy ([5]; application rate of 500 g/ha)	efficacy [6]	other results
Cc1cc(F)c(N2CC(OCc3ccccc3)=CC2=O)cc1[S+]([O-])CC(F)(F)F (centres unmarked) [Example 323]	2.87	2.81	–	–	nematicidal efficacy [3]: 90%
COc1nn(-c2cc(SCC(F)(F)F)c(C)cc2F)c(=O)n1CC1CC1 [Example 390]	3.64	3.58	100%	100%	efficacy [4]: 100%
Cc1ccc(-n2nc(OCC3CC3)n(C)c2=O)cc1SCC(F)(F)F [Example 145]	4.20	4.19	–	–	nematicidal efficacy [3]: 100%
COc1nn(-c2ccc(Br)c(SCC(F)(F)F)c2)c(=O)n1C1CC1 [Example 111]	4.01	3.93	–	–	nematicidal efficacy [3]: 100%
Cc1cc(F)c(-n2nc(OCC(Cl)(Cl)Cl)n(C)c2=O)cc1[S+]([O-])CC(F)(F)F (centres unmarked) [Example 392]	3.13	3.09	100%	90%	efficacy [4]: 100%
C=C(C)CCOc1nn(-c2ccc(C)c(SCC(F)(F)F)c2)c(=O)n1C1CC1 [Example 138]	5.01	4.96	–	–	nematicidal efficacy [3]: 90%
CCC(C)Oc1nn(-c2ccc(C)c(SCC(F)(F)F)c2)c(=O)n1C1CC1 (centres unmarked) [Example 142]	5.01	4.96	–	–	nematicidal efficacy [3]: 90%
COc1nn(-c2ccc(Cl)c(SCC(F)(F)F)c2)c(=O)n1C1CC1 [Example 108]	3.91	3.84	–	–	nematicidal efficacy [3]: 90%
Cc1ccc(-n2nc(OC(C)(C)C)n(C)c2=O)cc1SCC(F)(F)F [Example 154]	4.55	4.45	83%	100%	–
C=CCn1c(OC)nn(-c2ccc(C)c(SCC(F)(F)F)c2)c1=O [Example 176]	3.87	3.81	100%	90%	–
CC(C)(C)COc1nn(-c2cc(SCC(F)(F)F)c(Cl)cc2F)c(=O)n1C1CC1 [Example 394]	4.95	4.89	83%	100%	–
COCCOC1=CC(=O)N(c2cc(SCC(F)(F)F)c(C)cc2F)C1 [Example 328]	2.86	2.82	100%	90%	–
C=CCn1c(OC)nn(-c2ccc(C)c([S+]([O-])CC(F)(F)F)c2)c1=O (centres unmarked) [Example 179]	2.61	2.57	100%	90%	–
CCN(CC)c1nn(-c2cc([S+]([O-])CC(F)(F)F)c(C)cc2F)c(=O)n1N (centres unmarked) [Example 223]	2.23	2.18	100%	90%	–
C=CCn1c(SC)nn(-c2cc([S+]([O-])CC(F)(F)F)c(C)cc2F)c1=O (centres unmarked) [Example 272]	2.54	2.48	83%	100%	–
Cc1cc(F)c(-n2ncn(-c3ccc(F)cc3)c2=O)cc1[S+]([O-])CC(F)(F)F (racemic) [Example 355]	2.45	2.41	83%	90%	–

Compound	logP[a] [1]	logP[b] [2]	efficacy ([5]; application rate of 500 g/ha)	efficacy [6]	other results
CCOC1=CC(=O)N(c2cc(SCC(F)(F)F)c(C)cc2F)C1 [Example 330]	3.29	3.21	100%	90%	–
Cc1cc(F)c(-n2nc(Cl)n(C)c2=O)cc1SCC(F)(F)F [Example 435]	3.07	3.04	83%	100%	–
Cc1cc(F)c(N2CC(OC3CCCC3)=CC2=O)cc1[S+]([O-])CC(F)(F)F (centres unmarked) [Example 336, 4-(Cyclopentyloxy)-1-{2-fluoro-4-methyl-5-[(2,2,2-trifluoroethyl)sulphinyl]phenyl}-1,5-dihydro-2H-pyrrol-2-one]	–	–	–	–	chromatographic logP [1, 7]: 2.97; chromatographic logP [1, 8]: 2.97; chromatographic logP [2]: 2.91; pest or weed control at 500 g/ha ([5]; application rate of 500 g/ha): 83%; pest or weed control at 500 g/ha [6]: 90%
Cc1cc(F)c(-n2nc(C)n(C)c2=O)cc1SCC(F)(F)F [Example 10, 2-{2-Fluoro-4-methyl-5-[(2,2,2-trifluoroethyl)sulphanyl]phenyl}-4,5-dimethyl-2,4-dihydro-3H-1,2,4-triazol-3-one]	–	–	–	–	chromatographic logP [1, 7]: 2.42; chromatographic logP [1, 8]: 2.42; chromatographic logP [2]: 2.38; pest or weed control at 500 g/ha ([5]; application rate of 500 g/ha): 100%; pest or weed control at 500 g/ha [6]: 90%
COc1nn(-c2cc([S+]([O-])CC(F)(F)F)c(Cl)cc2F)c(=O)n1C (centres unmarked) [Example 98]	2.12	2.10	–	100%	efficacy ([5]; application rate of 100 g/ha): 83%
Cc1cc(F)c(-n2nc(OCC(Cl)(Cl)Cl)n(C)c2=O)cc1SCC(F)(F)F [Example 376]	4.23	4.18	100%	100%	–
Cc1cc(F)c(-n2nc(C)n(N)c2=O)cc1[S+]([O-])CC(F)(F)F (centres unmarked) [Example 209]	1.36	1.34	83%	100%	–
CNc1nn(-c2cc([S+]([O-])CC(F)(F)F)c(C)cc2F)c(=O)n1N (centres unmarked) [Example 219]	1.32	1.29	100%	90%	–
Cc1cc(F)c(-n2ncn(-c3ccccc3)c2=O)cc1SCC(F)(F)F [Example 351]	3.43	3.36	100%	100%	–
COC1=CC(=O)N(c2ccc(C(F)(F)F)c([S+]([O-])CC(F)(F)F)c2)C1 (centres unmarked) [Example 321]	2.61	2.55	100%	–	efficacy [4]: 100%
Cc1cc(F)c(-n2nc(C)n(C)c2=O)cc1[S+]([O-])CC(F)(F)F (centres unmarked) [Example 11, 2-{2-Fluoro-4-methyl-5-[(2,2,2-trifluoroethyl)sulphinyl]phenyl}-4,5-dimethyl-2,4-dihydro-3H-1,2,4-triazol-3-one]	–	–	–	–	chromatographic logP [1, 7]: 1.57; chromatographic logP [1, 8]: 1.57; chromatographic logP [2]: 1.5; pest or weed control at 500 g/ha ([5]; application rate of 500 g/ha): 100%; pest or weed control at 500 g/ha [6]: 100%
Cc1cc(F)c(-n2ncn(-c3ccc(F)cc3)c2=O)cc1SCC(F)(F)F [Example 349]	3.48	3.40	100%	90%	–
Cc1cc(F)c(-n2nnn(C)c2=S)cc1SCC(F)(F)F [Example 447, 1-{2-Fluoro-4-methyl-5-[(2,2,2-trifluoroethyl)sulphanyl]phenyl}-4-methyl-1,4-dihydro-5H-tetrazole-5-thione]	–	–	–	–	chromatographic logP [1, 7]: 3.51; chromatographic logP [1, 8]: 3.51; chromatographic logP [2]: 3.49; pest or weed control at 500 g/ha ([5]; application rate of 500 g/ha): 100%; pest or weed control at 500 g/ha [6]: 100%
Cc1cc(F)c(-n2nc(C)n(-c3ccccc3)c2=O)cc1SCC(F)(F)F [Example 350]	3.40	3.34	83%	100%	–
Cc1cc(F)c(-n2nc(Cl)n(C)c2=O)cc1[S+]([O-])CC(F)(F)F (centres unmarked) [Example 437]	2.00	1.98	83%	90%	–
C=CCn1c(OC)nn(-c2cc([S+]([O-])CC(F)(F)F)c(C)cc2F)c1=O (racemic) [Example 183]	2.24	2.21	100%	100%	–
